Laboratory results as given in patent publication US10765114B2, “4-amino-6-(pyridyl and 2-substitutedphenyl)-picolinates and 6-amino-2-(pyridyl and 2-substitutedphenyl)-pyrimidine-4-carboxylates and their use as herbicides” (Dow AgroSciences LLC, priority 2013, dated 2020).

Key:
Experiment in all cases: Post-Emergent Test I
Type in all cases: in vivo
Details in all cases: postemergence
[1] = tested on: AMARE: redroot pigwseed (Amaranthus retroflexus)
Description: (§1) Post-Emergent Test I Seeds test species were obtained from commercial suppliers and planted into a 13 centimeter (cm) diameter-round pot containing soil-less media mix (Metro-Mix 360®, Sun Gro Horticulture). Postemergence treatments were planted 8-12 days prior to application and cultured in a greenhouse equipped with supplemental light sources to provide a 16 hour (h) photoperiod at 24-29° C. All pots were surface irrigated.
(§2) A weighted amount, determined by the highest rate to be tested, of each compound was dissolved in 1.3 mL acetone-dimethyl sulfoxide (DMSO; 97:3, volume per volume (v/v)) and diluted with 4.1 mL water-isopropanol-crop oil concentrate (78:20:2, v/v/v) containing 0.02% Triton X-155 to obtain concentrated stock solutions. Additional application rates were obtained by serial dilution of the high rate solution into a solution containing appropriate volume of 97:3 v/v mixture of acetone and DMSO and appropriate volume of an aqueous mixture of water, isopropyl alcohol, crop oil concentrate (78:20:2, v/v/v) containing 0.02% Triton X-155.
(§3) Formulated compounds were applied using a DeVilbiss® compressed air sprayer at 2-4 pounds per square inch (psi). Following treatment, pots were returned to the greenhouse for the duration of the experiment. All pots were sub-irrigated as need to provide optimum growing conditions. All pots were fertilized one time per week by subirrigating with Peters Peat-Lite Special® fertilizer (20-10-20).
(§4) All evaluations were made visually on a scale of 0 to 100 where 0 represents no activity and 100 represents complete plant death and presented as indicated in Table A. Visual assessments of plant injury were made based on growth reduction, discoloration, leaf deformity and necrosis

[2] = tested on: AVEFA: wild oats (Avena fatua)
Description: as §1, §2, §3, §4

[3] = tested on: ECHSS (ECHCG: barnyardgrass (Echinochloa crus-galli))
Description: as §1, §2, §3, §4

[4] = tested on: HELAN: sunflower (Helianthus annuus)
Description: as §1, §2, §3, §4

[5] = tested on: IPOSS (IPOHE: ivyleaf morningglory (Ipomoea hederecea))
Description: as §1, §2, §3, §4

[6] = tested on: SETFA: giant foxtail (Setaria faberi)
Description: as §1, §2, §3, §4

SMILES	Visual Growth Reduction (%) 14 Days After Application, AMARE ([1]; 4 kg ai/ha)	Visual Growth Reduction (%) 14 Days After Application, AVEFA ([2]; 4 kg ai/ha)	Visual Growth Reduction (%) 14 Days After Application, ECHSS ([3]; 4 kg ai/ha)	Visual Growth Reduction (%) 14 Days After Application, HELAN ([4]; 4 kg ai/ha)	Visual Growth Reduction (%) 14 Days After Application, IPOSS ([5]; 4 kg ai/ha)	Visual Growth Reduction (%) After Application, SETFA ([6]; 4 kg ai/ha)	Visual Growth Reduction (%) 14 Days After Application, AMARE ([1]; 3.8 kg ai/ha)	Visual Growth Reduction (%) 14 Days After Application, AVEFA ([2]; 3.8 kg ai/ha)	Visual Growth Reduction (%) 14 Days After Application, ECHSS ([3]; 3.8 kg ai/ha)	Visual Growth Reduction (%) 14 Days After Application, HELAN ([4]; 3.8 kg ai/ha)	Visual Growth Reduction (%) 14 Days After Application, IPOSS ([5]; 3.8 kg ai/ha)	Visual Growth Reduction (%) After Application, SETFA ([6]; 3.8 kg ai/ha)
COC(=O)c1nc(-c2ccc(C(F)(F)F)nc2)cc(N)c1Cl [Compound 4]	A (95-100)	B (85-94)	C (75-84)	A (95-100)	A (95-100)	A (95-100)	–	–	–	–	–	–
COC(=O)c1nc(-c2ccc(Cl)nc2F)cc(N)c1Cl [Compound 17, methyl 4-amino-5,6′-dichloro-2′-fluoro-[2,3′-bipyridine]-6-carboxylate]	–	–	–	–	–	–	C (75-84)	F (30-44)	F (30-44)	A (95-100)	A (95-100)	B (85-94)
